Laboratory results published in publication PMC9116478, “Population Pharmacokinetics of Caspofungin and Dose Simulations in Heart Transplant Recipients” (Antimicrobial Agents and Chemotherapy, 2022).
Where two headings read alike, the source gives them in different places.

Legend:
[1] = under normal plasma protein levels; cited from earlier work
Description: Kurland et al. ([26]) found a negative correlation between hypoalbuminemia and elimination rate constant. […] They also identified total bilirubin (TBIL) as another covariate. ALB and TBIL levels were collectively found to affect CL of caspofungin.

Candida glabrata = conditions: pharmacodynamic target used for PTA; cited from earlier work
Description: (§1) This study used Matlab software for simulations. The simulated data were based on the virtual patients with different ALB levels (25, 30, 37, 45, and 50 g/liter) at various dosage regimens (50-, 70-, 100-, 150-, and 200-mg maintenance dose). The median ALB level of the research population was 37 g/liter. We generated 1,000 virtual patients whose pharmacokinetic parameters were randomly assigned according to the distributions with the median of CL, θALB-CL, and CL interindividual variations and their calculated standard deviations from bootstraps (Table 2) for the simulations. AUC was calculate ...

Candida parapsilosis = conditions: pharmacodynamic target used for PTA; cited from earlier work
Description: as §1

Candida albicans = conditions: pharmacodynamic target used for PTA; cited from earlier work
Description: as §1

[2] = Population pharmacokinetics of caspofungin in HTx and non-HTx patients (plasma LC-MS/MS, NONMEM two-compartment model); format: in vivo, human (patients); conditions: for clearance / Cmax: human, iv; for Cmax: read-out: Cmax (peak plasma concentration)
Description: This was a prospective, single-center, open-label study. We recruited patients who underwent HTx at the Guangdong Provincial People’s Hospital in the SICU from July 2019 to July 2021. The inclusion criteria were: (i) patients aged 18 years or older who received caspofungin in SICU and accepted cardiac surgery and (ii) acceptability of multiple blood sampling. Patients who were allergic to caspofungin, those receiving drugs that can affect the PK of caspofungin, and those who could not receive multiple blood sampling were excluded. Patients who underwent HTx in SICU were recruited as the HTx group. Patients who never received HTx but underwent cardiac surgery and being in SICU were recruited in the control group. This study was approved by the Ethics Committee of Guangdong Provincial People’s Hospital, Guangdong Academy of Medical Sciences (approval number GDREC2018355(R1)H).
Caspofungin (Laboratoires Merck Sharp & Dohme Chibret, France) was administered by 1-h intravenous infusion at a dose of 50 mg every 24 h after a loading dose of 70 mg. Blood samples were collected before administration and at 1, 2, 6, 10, 16, and 24 h after the administration of caspofungin for at least 3 days. Plasma was separated by centrifugation of blood samples at 2,000 × g for 10 min at 4°C and stored at −80°C before analysis.
All plasma samples were detected by the liquid chromatography-tandem mass spectrometry (LC-MS/MS) method. First, 200 μL of acetonitrile-dissolved extraction working solution was added to 100 μL of plasma sample and mixed by vortexing at 3,000 rpm for 1 min. After centrifugation at 14,000 rpm for 15 min at 4°C, 2 μL supernatant was injected for LC-MS/MS analysis. The chromatographic column was an Agilent poroshell 120 SB-C18 (2.7 μm, 3.0 × 50 mm) column. The mobile phase was acetonitrile with 0.1% formic acid (A) and water with 0.1% formic acid (B). In the initial 0 to 0.5 min, the mobile phase was composed of 95% B and 5% A, and then within 0.5 to 1.5 min, the mobile phase B decreased linearly from 95% to 5% and remained unchanged for 1.5 to 2 min. Finally, it returned to 95% B and 5% A, and the entire analysis time was 5 min. The flow rate was 0.5 mL/min, and the column temperature was 35°C. A positive ion mode multiple reaction monitoring detection mode through electrospray ionization was performed with the transitions of m/z 547.3 → 538.2 for caspofungin and m/z 549.3 → 540.3 for caspofungin-d4 (IS). The linear range of the method was 0.4 to 25 mg/liter. The intraday and interday precision were 1.56 to 3.32% and 3.40 to 7.48%, respectively, and the deviation of accuracy was 0.96 to 2.21%.
We analyzed population PK data using the nonlinear mixed-effects modeling software NONMEM 7.3 (version 7.3, ICON plc, NY, USA). We employed one-, two-, and three-compartment pharmacokinetic models to fit the data and selected the most suitable basic structural model. Further, all potential covariates for caspofungin PK parameters reported in previous studies were analyzed. The covariates included demographic characteristics, renal function indices, liver function indices, HTx status, ECMO, and CRRT. Different covariate types have different variable models. Discrete covariates (such as sex) were modeled as follows. (1) Cij=Ctv,j×θjcov×enj
For continuous covariates (such as weight), an exponential model was selected with average covariates values and an adjusting factor. (2) Cij=Ctv,j×(cov/covave)^θj×e^ηj
In the above equations, Cij is the individual value. Ctv,j is the population typical value. cov in equation 1 is expressed as 0 or 1, cov in equation 2 is the value of the covariate, and θj is an impact factor. covave is the average value of a continuous covariate. Interindividual variability is shown as ηj, which is normally distributed with mean 0 and variance ω^2. Residual variability was modeled using a mixture of additive and proportional error models. […]

[3] = Control group (n = 31), median (range)
[4] = Heart transplantation group (n = 27), median (range)
[5] = population estimate, 58 patients, 414 plasma concentrations, 50 mg q24h i.v. after 70 mg loading dose, two-compartment model

What does the source list for `CC[C@H](C)C[C@H](C)CCCCCCCCC(=O)N[C@H]1C[C@@H](O)[C@@H](NCCN)NC(=O)[C@@H]2[C@@H](O)CCN2C(=O)[C@H]([C@H](O)CCN)NC(=O)[C@H]([C@H](O)[C@@H](O)c2ccc(O)cc2)NC(=O)[C@@H]2C[C@@H](O)CN2C(=O)[C@H]([C@@H](C)O)NC1=O` [caspofungin]?
protein binding rate [1]: 97%; target AUC/MIC value (Candida glabrata): > 450; target AUC/MIC value (Candida parapsilosis): > 1,185; target AUC/MIC value (Candida albicans): greater than 865; Vc [2, 3]: 5.27 L; Vp [2, 3]: 6.31 L; Vc [2, 4]: 3.14 L; Vp [2, 4]: 4.98 L; Q ([2]; control group, median): 2.85 L/h; clearance ([2]; population estimate, 58 patients (27 HTx, 31 non-HTx), 414 plasma concentrations, 50 mg q24h 1-h i.v. infusion after 70 mg loading dose, LC-MS/MS, two-compartment model, read-out: CL (clearance), final model estimate (converted)): 6.42 mL/min; clearance ([2]; plasma, 50 mg, Control group (n = 31), median (range), read-out: CL (converted)): 7.5 mL/min; Cmax ([2]; plasma, 50 mg, Control group, non-HTx critically ill patients (n = 31), median (range), 50 mg q24h 1-h i.v. infusion after 70 mg loading dose): 7890 ng/mL; Cmax ([2]; plasma, 50 mg, Heart transplantation group (n = 27), median (range), 50 mg q24h 1-h i.v. infusion after 70 mg loading dose): 11700 ng/mL; clearance ([2]; plasma, 50 mg, Heart transplantation group (n = 27), median (range), read-out: CL (converted)): 5.83 mL/min; Q (intercompartmental clearance), final model estimate [2, 5]: 2.85 L/h; Vc (volume of distribution of the central compartment), final model estimate [2, 5]: 4.27 L; Vp (volume of distribution of the peripheral compartment), final model estimate [2, 5]: 6.01 L
